Experimental data: patent publication US8404643B2, “Metastin derivatives and use thereof” (priority 2005, dated 2013)
Square brackets hold non-standard residues; d marks the D form. Peptide text beside a SMILES is read from it. Arg(Me) = CNC(=N)NCCC[C@H](N)C(=O)O; Dap(CONH2) = NC(=O)NC[C@H](N)C(=O)O; Ala(cPr) = N[C@@H](CC1CC1)C(=O)O; Hyp = O=C(O)[C@@H]1C[C@@H](O)CN1; Cit = NC(=O)NCCC[C@H](N)C(=O)O; NMeS = CN[C@@H](CO)C(=O)O; Dap = NC[C@H](N)C(=O)O; azaGly = NNC(=O)O

Target: T1, hOT7T175 (Homo sapiens, UniProt Q969F8)
T1 construct: expressed in transfected cells
Assay: Assay for intracellular Ca ion level-increasing activity using FLIPR
Format: cell-based
Details: hOT7T175/CHO cells, relative to Metastin (1-54)
Outline: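 CHO/dhfr− cells stably transfected with hOT7T175, selected for high metastin response, loaded with Fluo3-AM for 1 h at 37 °C in HANKS/HBSS (pH 7.4) with probenecid. Peptides were diluted from 1×10^−3 M DMSO stock into HANKS/HBSS with 2.5 mM probenecid, 0.2% BSA, 0.1% CHAPS; intracellular Ca rise read by FLIPR.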

T1 sequence (Q969F8 whole entry L364H): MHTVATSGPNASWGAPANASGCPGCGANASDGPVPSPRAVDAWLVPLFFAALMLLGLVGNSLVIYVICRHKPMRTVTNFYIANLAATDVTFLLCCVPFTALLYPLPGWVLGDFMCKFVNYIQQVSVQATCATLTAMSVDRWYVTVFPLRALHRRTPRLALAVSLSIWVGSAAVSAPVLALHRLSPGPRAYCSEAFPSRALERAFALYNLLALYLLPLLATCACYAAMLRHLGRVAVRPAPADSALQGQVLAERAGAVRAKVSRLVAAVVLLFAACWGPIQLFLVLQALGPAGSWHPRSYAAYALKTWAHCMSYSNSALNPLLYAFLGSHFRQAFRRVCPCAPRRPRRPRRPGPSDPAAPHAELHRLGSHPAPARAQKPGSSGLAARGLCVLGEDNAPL

Compared with `CC(=O)N[C@H](Cc1ccc(O)cc1)C(=O)N1C[C@H](O)C[C@H]1C(=O)N[C@@H](CC(N)=O)C(=O)N[C@H](C(=O)N[C@@H](Cc1ccccc1)C(=O)NNC(=O)N[C@@H](CC(C)C)C(=O)N[C@@H](CCCNC(=N)N)C(=O)N[C@@H](Cc1c[nH]c2ccccc12)C(N)=O)[C@@H](C)O` [Compound No. 797, Ac-D-Tyr-Hyp-Asn-Thr-Phe-AzaGly-Leu-Arg-Trp-NH2] (Ac-[dY][Hyp]NTF[azaGly]LRW-NH2), `CNC(=N)NCCC[C@H](NC(=O)[C@H](CC(C)C)NC(=O)NNC(=O)[C@H](Cc1ccccc1)NC(=O)[C@@H](NC(=O)[C@@H](CC(N)=O)NC(=O)[C@@H]1C[C@@H](O)CN1C(=O)[C@@H](Cc1ccc(O)cc1)NC(C)=O)[C@@H](C)O)C(=O)N[C@@H](Cc1c[nH]c2ccccc12)C(N)=O` [Compound No. 844, Ac-D-Tyr-Hyp-D-Asn-Thr-Phe-AzaGly-Leu-Arg(Me)-Trp-NH2] (Ac-[dY][Hyp][dN]TF[azaGly]L[Arg(Me)]W-NH2) is lower in “Specific Activity: intracellular Ca ion level-increasing activity [specific activity to Metastin (1-54)]” value: 1.4 for the first, 0.9 for the second.

First: CNC(=N)NCCC[C@H](NC(=O)[C@H](CC(C)C)NC(=O)NNC(=O)[C@H](Cc1ccccc1)NC(=O)[C@@H](NC(=O)[C@H](CNC(N)=O)NC(=O)[C@@H]1C[C@@H](O)CN1C(=O)[C@@H](Cc1ccc(O)cc1)NC(C)=O)[C@@H](C)O)C(=O)N[C@@H](Cc1c[nH]c2ccccc12)C(N)=O [Compound No. 800, Ac-D-Tyr-Hyp-Alb-Thr-Phe-AzaGly-Leu-Arg(Me)-Trp-NH2] (Ac-[dY][Hyp][Dap(CONH2)]TF[azaGly]L[Arg(Me)]W-NH2)
Second: CNC(=N)NCCC[C@H](NC(=O)[C@H](CC(C)C)NC(=O)NNC(=O)[C@H](Cc1ccccc1)NC(=O)[C@H](NC(=O)[C@H](CC(N)=O)NC(=O)[C@@H]1C[C@@H](O)CN1C(=O)[C@@H](Cc1ccc(O)cc1)NC(C)=O)[C@H](C)O)C(=O)N[C@@H](Cc1c[nH]c2ccccc12)C(N)=O [Compound No. 846, Ac-D-Tyr-Hyp-Asn-D-Thr-Phe-AzaGly-Leu-Arg(Me)-Trp-NH2] (Ac-[dY][Hyp]N[dT]F[azaGly]L[Arg(Me)]W-NH2)
The “Specific Activity: intracellular Ca ion level-increasing activity [specific activity to Metastin (1-54)]” value of the first is lower: 0.8 for the first, 0.9 for the second.

First: CNC(=N)NCCC[C@H](NC(=O)[C@H](CC(C)C)NC(=O)NNC(=O)[C@H](Cc1ccccc1)NC(=O)c1ccc(CN(Cc2ccccn2)Cc2ccccn2)cc1)C(=O)N[C@@H](Cc1c[nH]c2ccccc12)C(N)=O [Compound No. 801, 4-[Bis-(2-Pyridylmethyl)aminomethyl]benzoyl-Phe-AzaGly-Leu-Arg(Me)-Trp-NH2]
Second: CNC(=N)NCCC[C@H](NC(=O)[C@H](CC(C)C)NC(=O)NNC(=O)[C@H](Cc1ccccc1)NC(=O)c1ccc(NC(N)=O)cc1)C(=O)N[C@@H](Cc1c[nH]c2ccccc12)C(N)=O [Compound No. 860, 4-Ureidobenzoyl-Phe-AzaGly-Leu-Arg(Me)-Trp-NH2]
The “Specific Activity: intracellular Ca ion level-increasing activity [specific activity to Metastin (1-54)]” value of the first is higher: 11.1 for the first, 1.3 for the second.

Compared with `CNC(=N)NCCC[C@H](NC(=O)[C@H](CC(C)C)NC(=O)NNC(=O)[C@H](Cc1ccccc1)NC(=O)[C@H](CO)N(C)C(=O)[C@H](CC(N)=O)NC(=O)[C@@H]1C[C@@H](O)CN1C(=O)[C@@H](Cc1ccc(O)cc1)NC(C)=O)C(=O)N[C@@H](Cc1c[nH]c2ccccc12)C(N)=O` [Compound No. 809, Ac-D-Tyr-Hyp-Asn-NMeSer-Phe-AzaGly-Leu-Arg(Me)-Trp-NH2] (Ac-[dY][Hyp]N[NMeS]F[azaGly]L[Arg(Me)]W-NH2), `CNC(=N)NCCC[C@H](NC(=O)[C@H](CC(C)C)NC(=O)NNC(=O)[C@H](Cc1ccccc1)NC(=O)[C@H](C)NC(=O)[C@H](CC(N)=O)NC(=O)[C@@H]1C[C@@H](O)CN1C(=O)[C@@H](Cc1ccc(O)cc1)NC(C)=O)C(=O)N[C@@H](Cc1c[nH]c2ccccc12)C(N)=O` [Compound No. 814, Ac-D-Tyr-Hyp-Asn-Ala-Phe-AzaGly-Leu-Arg(Me)-Trp-NH2] (Ac-[dY][Hyp]NAF[azaGly]L[Arg(Me)]W-NH2) is lower in “Specific Activity: intracellular Ca ion level-increasing activity [specific activity to Metastin (1-54)]” value: 1.0 for the first, 0.5 for the second.

Compared with `CNC(=N)NCCC[C@H](NC(=O)[C@H](CC(C)C)NC(=O)NNC(=O)[C@H](Cc1ccccc1)NC(=O)[C@@H]1C[C@@H](O)CN1C(=O)[C@H](CC(N)=O)NC(=O)[C@@H]1C[C@@H](O)CN1C(=O)[C@@H](Cc1ccc(O)cc1)NC(C)=O)C(=O)N[C@@H](Cc1c[nH]c2ccccc12)C(N)=O` [Compound No. 810, Ac-D-Tyr-Hyp-Asn-Hyp-Phe-AzaGly-Leu-Arg(Me)-Trp-NH2] (Ac-[dY][Hyp]N[Hyp]F[azaGly]L[Arg(Me)]W-NH2), `CNC(=N)NCCC[C@H](NC(=O)[C@H](CC(C)C)NC(=O)NNC(=O)[C@H](Cc1ccccc1)NC(=O)CNC(=O)[C@H](CC(N)=O)NC(=O)[C@@H]1C[C@@H](O)CN1C(=O)[C@@H](Cc1ccc(O)cc1)NC(C)=O)C(=O)N[C@@H](Cc1c[nH]c2ccccc12)C(N)=O` [Compound No. 813, Ac-D-Tyr-Hyp-Asn-Gly-Phe-AzaGly-Leu-Arg(Me)-Trp-NH2] (Ac-[dY][Hyp]NGF[azaGly]L[Arg(Me)]W-NH2) is lower in “Specific Activity: intracellular Ca ion level-increasing activity [specific activity to Metastin (1-54)]” value: 1.5 for the first, 0.5 for the second.

First: CNC(=N)NCCC[C@H](NC(=O)[C@H](CC(C)C)NC(=O)NNC(=O)[C@H](Cc1ccccc1)NC(=O)[C@@H](C)NC(=O)[C@H](CC(N)=O)NC(=O)[C@@H]1C[C@@H](O)CN1C(=O)[C@@H](Cc1ccc(O)cc1)NC(C)=O)C(=O)N[C@@H](Cc1c[nH]c2ccccc12)C(N)=O [Compound No. 815, Ac-D-Tyr-Hyp-Asn-D-Ala-Phe-AzaGly-Leu-Arg(Me)-Trp-NH2] (Ac-[dY][Hyp]N[dA]F[azaGly]L[Arg(Me)]W-NH2)
Second: CNC(=N)NCCC[C@H](NC(=O)[C@H](CC(C)C)NC(=O)NNC(=O)[C@H](Cc1ccccc1)NC(=O)[C@@H](NC(=O)[C@H](CCC(N)=O)NC(=O)[C@@H]1C[C@@H](O)CN1C(=O)[C@@H](Cc1ccc(O)cc1)NC(C)=O)[C@@H](C)O)C(=O)N[C@@H](Cc1c[nH]c2ccccc12)C(N)=O [Compound No. 843, Ac-D-Tyr-Hyp-Gln-Thr-Phe-AzaGly-Leu-Arg(Me)-Trp-NH2] (Ac-[dY][Hyp]QTF[azaGly]L[Arg(Me)]W-NH2)
The “Specific Activity: intracellular Ca ion level-increasing activity [specific activity to Metastin (1-54)]” value of the first is lower: 0.5 for the first, 0.8 for the second.

First: CNC(=N)NCCC[C@H](NC(=O)[C@H](CC(C)C)NC(=O)NNC(=O)[C@H](Cc1ccccc1)NC(=O)[C@@H](NC(=O)[C@H](Cc1cnc[nH]1)NC(=O)[C@@H]1C[C@@H](O)CN1C(=O)[C@@H](Cc1ccc(O)cc1)NC(C)=O)[C@@H](C)O)C(=O)N[C@@H](Cc1c[nH]c2ccccc12)C(N)=O [Compound No. 816, Ac-D-Tyr-Hyp-His-Thr-Phe-AzaGly-Leu-Arg(Me)-Trp-NH2] (Ac-[dY][Hyp]HTF[azaGly]L[Arg(Me)]W-NH2)
Second: CNC(=N)NCCC[C@H](NC(=O)[C@H](CC(C)C)NC(=O)NNC(=O)[C@H](Cc1ccccc1)NC(=O)[C@@H](NC(=O)[C@H](CN)NC(=O)[C@@H]1C[C@@H](O)CN1C(=O)[C@@H](Cc1ccc(O)cc1)NC(C)=O)[C@@H](C)O)C(=O)N[C@@H](Cc1c[nH]c2ccccc12)C(N)=O [Compound No. 863, Ac-D-Tyr-Hyp-Dap-Thr-Phe-AzaGly-Leu-Arg(Me)-Trp-NH2] (Ac-[dY][Hyp][Dap]TF[azaGly]L[Arg(Me)]W-NH2)
The “Specific Activity: intracellular Ca ion level-increasing activity [specific activity to Metastin (1-54)]” value of the first is higher: 1.1 for the first, 0.9 for the second.

Going from `CNC(=N)NCCC[C@H](NC(=O)[C@H](CC(C)C)NC(=O)NNC(=O)[C@H](Cc1ccccc1)NC(=O)[C@@H](NC(=O)[C@H](CCCNC(N)=O)NC(=O)[C@@H]1C[C@@H](O)CN1C(=O)[C@@H](Cc1ccc(O)cc1)NC(C)=O)[C@@H](C)O)C(=O)N[C@@H](Cc1c[nH]c2ccccc12)C(N)=O` [Compound No. 845, Ac-D-Tyr-Hyp-Cit-Thr-Phe-AzaGly-Leu-Arg(Me)-Trp-NH2] (Ac-[dY][Hyp][Cit]TF[azaGly]L[Arg(Me)]W-NH2) to `CNC(=N)NCCC[C@H](NC(=O)[C@H](CC(C)C)NC(=O)NNC(=O)[C@H](Cc1ccccc1)NC(=O)[C@@H](NC(=O)[C@H](CCCNC(=N)N)NC(=O)[C@@H]1C[C@@H](O)CN1C(=O)[C@@H](Cc1ccc(O)cc1)NC(C)=O)[C@@H](C)O)C(=O)N[C@@H](Cc1c[nH]c2ccccc12)C(N)=O` [Compound No. 861, Ac-D-Tyr-Hyp-Arg-Thr-Phe-AzaGly-Leu-Arg(Me)-Trp-NH2] (Ac-[dY][Hyp]RTF[azaGly]L[Arg(Me)]W-NH2), the “Specific Activity: intracellular Ca ion level-increasing activity [specific activity to Metastin (1-54)]” value rises from 1.0 to 1.4.

First: CNC(=N)NCCC[C@H](NC(=O)[C@H](CC1CC1)NC(=O)NNC(=O)[C@H](Cc1ccccc1)NC(=O)[C@@H](NC(=O)[C@H](CC(N)=O)NC(=O)[C@@H]1C[C@@H](O)CN1C(=O)[C@@H](Cc1ccc(O)cc1)NC(C)=O)[C@@H](C)O)C(=O)N[C@@H](Cc1c[nH]c2ccccc12)C(N)=O [Compound No. 856, Ac-D-Tyr-Hyp-Asn-Thr-Phe-AzaGly-Ala(cPr)-Arg(Me)-Trp-NH2] (Ac-[dY][Hyp]NTF[azaGly][Ala(cPr)][Arg(Me)]W-NH2)
Second: CNC(=N)NCCC[C@H](NC(=O)[C@H](CC(C)C)NC(=O)NNC(=O)[C@H](Cc1ccccc1)NC(=O)[C@@H](NC(=O)CNC(=O)[C@@H]1C[C@@H](O)CN1C(=O)[C@@H](Cc1ccc(O)cc1)NC(C)=O)[C@@H](C)O)C(=O)N[C@@H](Cc1c[nH]c2ccccc12)C(N)=O [Compound No. 862, Ac-D-Tyr-Hyp-Gly-Thr-Phe-AzaGly-Leu-Arg(Me)-Trp-NH2] (Ac-[dY][Hyp]GTF[azaGly]L[Arg(Me)]W-NH2)
The “Specific Activity: intracellular Ca ion level-increasing activity [specific activity to Metastin (1-54)]” value of the first is lower: 0.6 for the first, 0.7 for the second.
